pEC50: −log10 of the molar value.

The subject of the first assay is HCT-116 cells. Description: AlamarBlue Cell Viability Assays. The conditions noted are these: Homo sapiens, treated 72 hours. It counts as cell-based. How it is done:
AlamarBlue Cell Viability Assays
HCT-116 cells (3,000/well; 96-well format) were treated for 72 hours with increasing concentrations of compounds (0.01-30 μM in half-log increments). The cells were then incubated in fresh media with 10% AlamarBlue reagent (Invitrogen #DAL1100). AlamarBlue reactions were incubated according to the manufacturer's instructions (approximately 4 hours) and then analyzed using an fmax fluorescence microplate reader (Molecular Devices) using excitation/emission wavelengths of 544/595 nm. Data were analyzed using SOFTmax PRO software provided by the manufacturer.
For orientation: pEC50 means −log10 of the EC50, conventionally taken in molar units. Higher therefore signals a small EC50. `Clc1ccc(Cn2cc(-c3ccc4[nH]ncc4c3)nn2)c(Cl)c1` [Example 32, 5-[1-(2,4-dichlorobenzyl)-1H-1,2,3-triazol-4-yl]-1H-indazole]: the negative logarithm of the EC50 (pEC50) was under 4.52.

Another assay deals with Cdc7/Dbf4 (Homo sapiens (Human), UniProt O00311). Description: Cdc7 Inhibition Assay.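 Also: reaction mixtures incubated 30 min on streptavidin-coated plates, then quantified by scintillation counting, with inhibition curves fitted by non-linear regression.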 It counts as biochemical. To be noted: 6 data point; read-out: Ki (μM) 6 data point.
Chain of Cdc7/Dbf4 (O00311 whole entry): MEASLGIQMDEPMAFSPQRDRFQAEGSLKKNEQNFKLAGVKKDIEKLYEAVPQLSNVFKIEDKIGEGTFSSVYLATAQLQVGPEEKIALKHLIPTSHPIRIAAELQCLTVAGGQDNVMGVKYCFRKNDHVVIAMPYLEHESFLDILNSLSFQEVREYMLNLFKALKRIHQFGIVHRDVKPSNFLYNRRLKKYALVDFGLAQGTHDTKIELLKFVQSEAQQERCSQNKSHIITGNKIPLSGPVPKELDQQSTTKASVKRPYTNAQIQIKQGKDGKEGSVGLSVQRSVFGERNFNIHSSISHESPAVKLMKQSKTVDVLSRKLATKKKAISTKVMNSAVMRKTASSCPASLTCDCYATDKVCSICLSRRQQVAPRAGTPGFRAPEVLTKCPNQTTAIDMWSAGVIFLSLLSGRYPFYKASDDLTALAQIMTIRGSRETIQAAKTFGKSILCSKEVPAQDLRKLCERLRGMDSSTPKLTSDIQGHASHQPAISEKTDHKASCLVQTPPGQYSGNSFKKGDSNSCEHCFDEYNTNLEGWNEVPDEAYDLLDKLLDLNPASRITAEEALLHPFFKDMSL
Chain of Cdc7/Dbf4 (Q9UBU7 whole entry partner): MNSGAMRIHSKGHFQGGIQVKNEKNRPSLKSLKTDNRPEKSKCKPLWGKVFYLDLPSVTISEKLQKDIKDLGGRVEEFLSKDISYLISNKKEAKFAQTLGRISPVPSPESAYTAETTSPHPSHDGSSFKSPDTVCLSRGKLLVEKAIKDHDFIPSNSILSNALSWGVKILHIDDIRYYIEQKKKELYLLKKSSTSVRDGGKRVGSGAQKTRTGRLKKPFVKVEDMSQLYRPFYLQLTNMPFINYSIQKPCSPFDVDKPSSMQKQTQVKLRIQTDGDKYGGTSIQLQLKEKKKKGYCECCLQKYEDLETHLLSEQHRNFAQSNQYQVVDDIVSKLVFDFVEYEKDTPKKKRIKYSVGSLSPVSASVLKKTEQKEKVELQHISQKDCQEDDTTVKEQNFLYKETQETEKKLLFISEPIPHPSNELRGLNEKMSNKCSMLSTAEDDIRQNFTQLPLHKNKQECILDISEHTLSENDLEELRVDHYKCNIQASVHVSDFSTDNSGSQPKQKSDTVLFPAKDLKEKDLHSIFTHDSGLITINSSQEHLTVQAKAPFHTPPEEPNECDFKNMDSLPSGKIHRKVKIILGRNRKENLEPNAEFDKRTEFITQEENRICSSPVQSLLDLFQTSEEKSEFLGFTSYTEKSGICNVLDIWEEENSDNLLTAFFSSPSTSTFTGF
Description: The reactions were incubated for 30 minutes on streptavidin-coated plates, washed, and quantified using a TopCount scintillation plate reader (Packard). IC50 values are determined via non-linear regression fitting of the data.
The Ki is the equilibrium dissociation constant of an inhibitor or competing ligand from its target. In the case of `O=C(c1cccc(Cl)c1)c1c(-c2ccc3[nH]ncc3c2)nnn1CC1CCOCC1` [Example 146, (3-chlorophenyl)[4-(1H-indazol-5-yl)-1-(tetrahydro-2H-pyran-4-ylmethyl)-1H-1,2,3-triazol-5-yl]methanone], the Ki came out at 0.229 µM.

Turning to `O=C(c1c(-c2ccc3[nH]ncc3c2)nnn1Cc1ccccc1)N1CCCCC1` [Example 169, 5-[1-benzyl-5-(piperidin-1-ylcarbonyl)-1H-1,2,3-triazol-4-yl]-1H-indazole], the Ki was over 1.23 µM. Consider `Cc1ccccc1-c1c(-c2ccc3[nH]nc(N)c3c2)nnn1CC1CCOCC1` [Example 171, 5-[5-(2-methylphenyl)-1-(tetrahydro-2H-pyran-4-ylmethyl)-1H-1,2,3-triazol-4-yl]-1H-indazol-3-amine], for which the Ki came to 0.03 µM. For `O=C(c1c(-c2ccc3[nH]ncc3c2)nnn1Cc1ccccc1)N1CCOCC1` [Example 172, 5-[1-benzyl-5-(morpholin-4-ylcarbonyl)-1H-1,2,3-triazol-4-yl]-1H-indazole], the Ki was over 1.23 µM. For the molecule `NC1CCN(C(=O)c2c(-c3ccc4[nH]ncc4c3)nnn2Cc2ccccc2)CC1` [Example 197, 1-{[1-benzyl-4-(1H-indazol-5-yl)-1H-1,2,3-triazol-5-yl]carbonyl}piperidin-4-amine], the Ki is 1.23 µM. Take `c1ccc(CNc2n[nH]c3ccc(-c4nnn(Cc5ccccc5)c4C4CC4)cc23)cc1` [Example 207, N-benzyl-5-(1-benzyl-5-cyclopropyl-1H-1,2,3-triazol-4-yl)-1H-indazol-3-amine]: the Ki stood at 0.046 µM. `O=C(Nc1ccccc1)c1c(-c2ccc3[nH]ncc3c2)nnn1Cc1ccccc1` [Example 243, 1-benzyl-4-(1H-indazol-5-yl)-N-phenyl-1H-1,2,3-triazole-5-carboxamide]: the Ki was over 1.23 µM. On to `CC1CN(C(=O)c2c(-c3ccc4[nH]ncc4c3)nnn2Cc2ccccc2)CC(C)O1` (stereo not drawn) [Example 254, 5-{1-benzyl-5-[(2,6-dimethylmorpholin-4-yl)carbonyl]-1H-1,2,3-triazol-4-yl}-1H-indazole], for which the Ki was over 1.23 µM. Take `CC(=O)N1CCN(C(=O)c2c(-c3ccc4[nH]ncc4c3)nnn2Cc2ccccc2)CC1` [Example 255, 5-{5-[(4-acetylpiperazin-1-yl)carbonyl]-1-benzyl-1H-1,2,3-triazol-4-yl}-1H-indazole]: the Ki is over 1.23 µM.

The assay is the same for the next values; noted with them: 11 data point; read-out: Ki (μM) 11 data point.
For the molecule `Fc1ccc(Cn2cc(-c3ccc4[nH]ncc4c3)nn2)cc1` [Example 10, 5-[1-(4-fluorobenzyl)-1H-1,2,3-triazol-4-yl]-1H-indazole], the Ki is 0.0563 µM.

As for `Clc1ccc(Cn2cc(-c3ccc4[nH]ncc4c3)nn2)c(Cl)c1` [Example 32, 5-[1-(2,4-dichlorobenzyl)-1H-1,2,3-triazol-4-yl]-1H-indazole], the Ki came to 0.0127 µM.

Consider `Nc1n[nH]c2ccc(-c3nnn(Cc4ccc(C(F)(F)F)cc4)c3-c3ccc(F)cc3)cc12` [Example 150, 5-{5-(4-fluorophenyl)-1-[4-(trifluoromethyl)benzyl]-1H-1,2,3-triazol-4-yl}-1H-indazol-3-amine], for which the Ki was 0.43 µM. For the molecule `O=S(=O)(Nc1n[nH]c2ccc(-c3nnn(Cc4ccccc4)c3-c3ccccc3)cc12)c1ccccc1` [Example 199, N-[5-(1-benzyl-5-phenyl-1H-1,2,3-triazol-4-yl)-1H-indazol-3-yl]benzenesulfonamide], the Ki was found to be 0.34 µM.

In the case of `O=S(=O)(Nc1n[nH]c2ccc(-c3nnn(Cc4ccccc4)c3C3CC3)cc12)c1ccccc1` [Example 217, N-[5-(1-benzyl-5-cyclopropyl-1H-1,2,3-triazol-4-yl)-1H-indazol-3-yl]benzenesulfonamide], the Ki came out at 1 µM. Turning to `O=S(=O)(Nc1n[nH]c2ccc(-c3nnn(Cc4ccccc4)c3C3CC3)cc12)c1ccccc1Cl` [Example 218, N-[5-(1-benzyl-5-cyclopropyl-1H-1,2,3-triazol-4-yl)-1H-indazol-3-yl]-2-chlorobenzenesulfonamide], the Ki is over 1.23 µM. With `O=S(=O)(Nc1n[nH]c2ccc(-c3nnn(Cc4ccccc4)c3C3CC3)cc12)c1ccc(Cl)cc1` [Example 220, N-[5-(1-benzyl-5-cyclopropyl-1H-1,2,3-triazol-4-yl)-1H-indazol-3-yl]-4-chlorobenzenesulfonamide], the Ki amounted to 0.98 µM. For `CN(C)CCC(=O)Nc1n[nH]c2ccc(-c3cn(Cc4ccccc4)nn3)cc12` [Example 311, N^1-[5-(1-benzyl-1H-1,2,3-triazol-4-yl)-1H-indazol-3-yl]-N^3,N^3-dimethyl-beta-alaninamide], the Ki is over 1.23 µM. As to `O=C1CN(CC(=O)Nc2n[nH]c3ccc(-c4cn(Cc5ccccc5)nn4)cc23)CCN1` [Example 314, N-[5-(1-benzyl-1H-1,2,3-triazol-4-yl)-1H-indazol-3-yl]-2-(3-oxopiperazin-1-yl)acetamide], the Ki amounted to 0.18 µM. In the case of `O=C(CNC1CCCCC1)Nc1n[nH]c2ccc(-c3cn(Cc4ccccc4)nn3)cc12` [Example 316, N^1-[5-(1-benzyl-1H-1,2,3-triazol-4-yl)-1H-indazol-3-yl]-N^2-cyclohexylglycinamide], the Ki came out at 0.5 µM. Same read-out and setting: with `O=C(CNC1CCC1)Nc1n[nH]c2ccc(-c3cn(Cc4ccccc4)nn3)cc12` [Example 318, N^1-[5-(1-benzyl-1H-1,2,3-triazol-4-yl)-1H-indazol-3-yl]-N^2-cyclobutylglycinamide] the figure was over 1.23 µM. `CCS(=O)(=O)Nc1n[nH]c2ccc(-c3cn(Cc4ccccc4)nn3)cc12` [Example 320, N-[5-(1-benzyl-1H-1,2,3-triazol-4-yl)-1H-indazol-3-yl]ethanesulfonamide]: the Ki came to 0.41 µM.

Consider `c1ccc(Cn2cc(-c3ccc4[nH]nc(NCC5CC5)c4c3)nn2)cc1` [Example 321, 5-(1-benzyl-1H-1,2,3-triazol-4-yl)-N-(cyclopropylmethyl)-1H-indazol-3-amine], for which the Ki turned out to be 0.57 µM. In the case of `O=C1CCCN1c1n[nH]c2ccc(-c3cn(Cc4ccccc4)nn3)cc12` [Example 323, 1-[5-(1-benzyl-1H-1,2,3-triazol-4-yl)-1H-indazol-3-yl]pyrrolidin-2-one], the Ki is 0.18 µM.

Regarding `CN(C)C(=O)c1n[nH]c2ccc(-c3cn(Cc4ccccc4)nn3)cc12` [Example 396, 5-(1-benzyl-1H-1,2,3-triazol-4-yl)-N,N-dimethyl-1H-indazole-3-carboxamide], the Ki stood at 0.681 µM.

As to `Cn1ccnc1-c1n[nH]c2ccc(-c3cn(Cc4ccccc4)nn3)cc12` [Example 398, 5-(1-benzyl-1H-1,2,3-triazol-4-yl)-3-(1-methyl-1H-imidazol-2-yl)-1H-indazole], the Ki turned out to be 0.489 µM. Take `c1ccc(Cn2cc(-c3ccc4[nH]nc(N5CCOCC5)c4c3)nn2)cc1` [Example 399, 5-(1-benzyl-1H-1,2,3-triazol-4-yl)-3-morpholin-4-yl-1H-indazole]: the Ki stood at 0.63 µM. Still for that read-out and setting: with `CN1CCN(c2n[nH]c3ccc(-c4cn(Cc5ccccc5)nn4)cc23)CC1` [Example 400, 5-(1-benzyl-1H-1,2,3-triazol-4-yl)-3-(4-methylpiperazin-1-yl)-1H-indazole] the figure was 0.23 µM; with `c1ccc(Cn2cc(-c3ccc4[nH]nc(-c5nccs5)c4c3)nn2)cc1` [Example 404, 5-(1-benzyl-1H-1,2,3-triazol-4-yl)-3-(1,3-thiazol-2-yl)-1H-indazole], 0.258 µM. The same measure, in the same setting: for `c1ccc(Cn2cc(-c3ccc4[nH]nc(NCCN5CCOCC5)c4c3)nn2)cc1` [Example 407, 5-(1-benzyl-1H-1,2,3-triazol-4-yl)-N-(2-morpholin-4-ylethyl)-1H-indazol-3-amine] the value was 0.22 µM.

Regarding `CCCCNc1n[nH]c2ccc(-c3cn(Cc4ccccc4)nn3)cc12` [Example 410, 5-(1-benzyl-1H-1,2,3-triazol-4-yl)-N-butyl-1H-indazol-3-amine], the Ki stood at 0.04 µM.

For `c1ccc(CNc2n[nH]c3ccc(-c4cn(Cc5ccccc5)nn4)cc23)cc1` [Example 411, N-benzyl-5-(1-benzyl-1H-1,2,3-triazol-4-yl)-1H-indazol-3-amine], the inhibition constant (Ki) is 0.12 µM.

Turning to `Clc1ccc(CNc2n[nH]c3ccc(-c4cn(Cc5ccccc5)nn4)cc23)cc1` [Example 412, 5-(1-benzyl-1H-1,2,3-triazol-4-yl)-N-(4-chlorobenzyl)-1H-indazol-3-amine], the Ki was found to be 0.14 µM. Consider `COc1ccc(CNc2n[nH]c3ccc(-c4cn(Cc5ccccc5)nn4)cc23)cc1` [Example 413, 5-(1-benzyl-1H-1,2,3-triazol-4-yl)-N-(4-methoxybenzyl)-1H-indazol-3-amine], for which the Ki was 0.052 µM.

Regarding `Fc1cccc(CNc2n[nH]c3ccc(-c4cn(Cc5ccccc5)nn4)cc23)c1` [Example 414, 5-(1-benzyl-1H-1,2,3-triazol-4-yl)-N-(3-fluorobenzyl)-1H-indazol-3-amine], the Ki is 0.038 µM. In the case of `N#Cc1ccc(CNc2n[nH]c3ccc(-c4cn(Cc5ccccc5)nn4)cc23)cc1` [Example 415, 4-({[5-(1-benzyl-1H-1,2,3-triazol-4-yl)-1H-indazol-3-yl]amino}methyl)benzonitrile], the Ki came out at 0.065 µM.

Consider `Fc1ccc(CNc2n[nH]c3ccc(-c4cn(Cc5ccccc5)nn4)cc23)c(F)c1` [Example 416, 5-(1-benzyl-1H-1,2,3-triazol-4-yl)-N-(2,4-difluorobenzyl)-1H-indazol-3-amine], for which the Ki came to 0.037 µM. Consider `c1ccc(Cn2cc(-c3ccc4[nH]nc(NCC5CCCCC5)c4c3)nn2)cc1` [Example 417, 5-(1-benzyl-1H-1,2,3-triazol-4-yl)-N-(cyclohexylmethyl)-1H-indazol-3-amine], for which the Ki stood at 0.35 µM.

`c1ccc(-n2cc(-c3ccc4[nH]ncc4c3)nn2)cc1` [Example 418, 5-(1-phenyl-1H-1,2,3-triazol-4-yl)-1H-indazole]: the Ki amounted to 0.192 µM.

Source of the values: patent US9163007B2, “5-substituted indazoles as kinase inhibitors” (AbbVie Inc., priority 2007, dated 2015).
